Non-standard residues stand in square brackets, D forms with d. Residues, ends and D or L forms follow the SMILES beside them. No end group written: not given here. Phe(4-F) = N[C@@H](Cc1ccc(F)cc1)C(=O)O
T1: hPDI b’x (Homo sapiens, UniProt P07237)
T1 construct: There is also a short 19 amino acid x-linker region between the b’ and a’ domains; made in house; host or cells: E. coli
T1 sequence (P07237 230-368 limits assumed): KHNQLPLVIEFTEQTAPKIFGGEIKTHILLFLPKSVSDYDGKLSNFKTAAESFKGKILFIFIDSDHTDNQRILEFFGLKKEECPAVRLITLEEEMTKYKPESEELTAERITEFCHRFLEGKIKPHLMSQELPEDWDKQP


What follows are molecules tested against T1, hPDI b’x (assay: Ligand-observe 19F NMR titration (chemical shift change vs b’x concentration, Kd)). Settings: 19F 1D NMR; constant 0.15 mM singly fluorinated peptide, varying b’x; 310 K; 20 mM sodium phosphate pH 7.0, 50 mM NaCl, 5% D6-DMSO; ± standard error of fit; read-out: Dissociation constant (Kd), LIGAND 19F Tracked (Single-F).
Assay type: binding
Method: (§1) NMR titrations were carried out by collecting ^19F NMR spectra (at a constant peptide concentration of 0.15 mM) and ^15N,^1H-HSQC spectra (at a constant protein concentration of 0.25 mM). This provided binding perspectives from both peptide and protein. ^19F NMR data provided precise curve fits of equation (1) with Kd values in agreement with those obtained by ^15N NMR (Table 1). […] Triple fluorinated peptide spectra are shown in Fig. 4 with example Kd graphs plotted using chemical shift change against b’x concentration (see Supplementary Information SV for single fluorinated peptide ^19F spectra).
(§2) All spectra were collected using a 4-channel, 5-amplifier Bruker Avance III 14.1 T (600 MHz ^1H) NMR spectrometer equipped with a 5 mm QCI-F cryoprobe. ^15N,^1H-HSQC spectra were acquired over 45 min on samples containing 0.25 mM b’x and varying peptide concentrations. Each ^19F 1D spectrum was acquired over 60 min on samples of 0.15 mM Δ-som with varying protein concentration. Ratios of the variable:static components in each experiment were 1:4, 1:2, 1:1, 1.5:1, 2:1 and 2.5:1. All samples were run at 310 K in 20 mM sodium phosphate buffer (pH 7.0) containing 50 mM NaCl, 5% D6-DMSO, 5% ^2H2O and 0.05% sodium azide. 1D NMR data were processed using Bruker Topspin software and referenced using the position of trifluoroacetic acid (−76.55 ppm). 2D data were processed using NMRPipe[31] and analysed using the CCPN Analysis software package.
(§3) where Δobs is the observed chemical shift perturbation, Δmax the maximum chemical shift perturbation and [P] and [L] the protein and ligand concentrations respectively. This equation was used to fit both ^15N and ^19F NMR data using KaleidaGraph 4.0 (Synergy Software). Standard errors from the Levenberg-Marquardt fitting routine were taken as the uncertainties. We determined Kd from ^15N,^1H HSQC NMR data using two approaches: First, by simultaneous fitting all shifts which are averaged to create a single plot, which is considered an accurate method of Kd determination. Second, we tracked and fitted each peak individually to the equation above and averaged all results and errors across all fits. […] This hPDI system creates Kd values with shallow binding curve where errors where average chemical shifts reduce fitting accuracy and individual fitting produces higher resoltuion. Therefore, we used Kd values from the averaged individual fit method within this paper to report smaller errors.

Going from C[C@H](N)C(=O)NCC(=O)N[C@@H](CO)C(=O)N[C@@H](CCCCN)C(=O)N[C@@H](CC(N)=O)C(=O)N[C@@H](Cc1ccccc1)C(=O)N[C@@H](Cc1ccc(F)cc1)C(=O)N[C@@H](Cc1c[nH]c2ccccc12)C(=O)N[C@@H](CCCCN)C(=O)N[C@H](C(=O)N[C@@H](Cc1ccccc1)C(=O)N[C@H](C(=O)N[C@@H](CO)C(=O)N[C@@H](CO)C(=O)O)[C@@H](C)O)[C@@H](C)O [F2 Δ-som] (H-AGSKNF[Phe(4-F)]WKTFTSS-OH) to C[C@H](N)C(=O)NCC(=O)N[C@@H](CO)C(=O)N[C@@H](CCCCN)C(=O)N[C@@H](CC(N)=O)C(=O)N[C@@H](Cc1ccc(F)cc1)C(=O)N[C@@H](Cc1ccccc1)C(=O)N[C@@H](Cc1c[nH]c2ccccc12)C(=O)N[C@@H](CCCCN)C(=O)N[C@H](C(=O)N[C@@H](Cc1ccccc1)C(=O)N[C@H](C(=O)N[C@@H](CO)C(=O)N[C@@H](CO)C(=O)O)[C@@H](C)O)[C@@H](C)O [F1 Δ-som] (H-AGSKN[Phe(4-F)]FWKTFTSS-OH), the Kd rises from 27 ± 3 µM to 109 ± 13 µM (4-fold).

The molecules below were run against human protein disulphide isomerase (hPDI) fragment b'x (human) (assay: NMR titration; protein-observed 15N,1H-HSQC; 0.25 mM 15N b'x constant, peptide titrated (ratios 1:4 to 2.5:1); 310 K; 20 mM sodium phosphate pH 7.0, 50 mM NaCl, 5% D6-DMSO, 5% 2H2O, 0.05% sodium azide; Kd is the average of the fits of the individual shifting peaks). Settings: not given.

First: AGSKNFFWKTATSS [Phe11 → Ala Δ-som]
Second: AGSKNFFWKTFTSS [Δ-somatostatin]
The Kd of the first is 2.5-fold higher: 261 µM for the first, 103 µM for the second.

AGSKNFFWKT[Phe(4-F)]TSS [F3 Δ-som] and AGSKN[Phe(4-F)]FWKTFTSS [F1 Δ-som] are within 1.5-fold of each other in Kd: 84 µM for the first, 61 µM for the second.

Compared with AGSKNFAWKTATSS [Phe7,11 → Ala Δ-som], AGSKNFAWKTFTSS [Phe7 → Ala Δ-som] is 3.3-fold lower in Kd: 412 µM for the first, 123 µM for the second.

Compared with AGSKNF[Phe(4-F)]WKTFTSS [F2 Δ-som], AGSKNAAWKTFTSS [Phe6,7 → Ala Δ-som] is 4.7-fold higher in Kd: 51 µM for the first, 242 µM for the second.

Compared with AGSKNAFWKTATSS [Phe6,11 → Ala Δ-som], AGSKNAFWKTFTSS [Phe6 → Ala Δ-som] is 2.9-fold lower in Kd: 587 µM for the first, 199 µM for the second.

For AGSKN[Phe(4-F)][Phe(4-F)]WKT[Phe(4-F)]TSS [F1,2,3 Δ-som], the Kd was 48 µM.

What follows are molecules tested against T1, hPDI b’x (assay: Protein-observe 15N,1H-HSQC NMR titration (chemical shift perturbation, Kd)). Settings: 0.25 mM 15N b’x; 310 K; pH 7.0; resonance shifts throughout the titration.
Assay type: binding
Method: as §1, §2
Amide chemical shifts were calculated in Hz as √[(0.6Δ^1H)^2 + (Δ^15N)^2]. Dissociation constants (Kd) for each shifting peak were calculated by plotting the chemical shift perturbation (Hz) against ligand concentration (mM) and fitting the curve to the equation: […]
as §3

“AGSKNAAWKTATSS [Phe6,7,11 → Ala Δ-som, triple Phe → Ala peptide of Δ-som]” was tested, and the “Binding classification from 15N,1H-HSQC titration series” value was “non-binding”.
With “RERQIKKQTALVELV [helix-28 from human serum albumin, helix-28 from human serum albumin (…), reference compound]” the “Binding classification from 15N,1H-HSQC titration series” value was “non-binding”.

Same assay, conditions: 15N,1H-HSQC; 0.25 mM 15N b’x; shifts did not map to the ligand binding site

In the case of “AGSKNAAWKTATSS [Phe6,7,11 → Ala Δ-som, triple Phe → Ala peptide of Δ-som]”, the “Chemical shifts identified at the end point of the titration” value is reported as less than 0.01 ppm.

Same assay, conditions: 15N,1H-HSQC; constant 0.25 mM 15N b’x, varying peptide (ratios 1:4 to 2.5:1); 310 K (37 °C); 20 mM sodium phosphate pH 7.0, 50 mM NaCl, 5% D6-DMSO; average of individual residue fits; ± standard error of Levenberg-Marquardt fit

“AGSKNAAWKTATSS [Phe6,7,11 → Ala Δ-som, triple Phe → Ala peptide of Δ-som]” was tested, and the “Dissociation constant (Kd), PROTEIN 15N/1H Tracked” value was “Non binding”.

Same assay, conditions: 15N,1H-HSQC; constant 0.25 mM 15N b’x, varying peptide (ratios 1:4 to 2.5:1); 310 K (37 °C); 20 mM sodium phosphate pH 7.0, 50 mM NaCl, 5% D6-DMSO; average of individual residue fits; ± standard error of Levenberg-Marquardt fit; read-out: Dissociation constant (Kd), PROTEIN 15N/1H Tracked

AGSKNFAWKTATSS [Phe7,11 → Ala Δ-som] and AGSKNAFWKTFTSS [Phe6 → Ala Δ-som] are within error of each other in Kd: 412 ± 219 µM for the first, 199 ± 100 µM for the second.

Going from C[C@H](N)C(=O)NCC(=O)N[C@@H](CO)C(=O)N[C@@H](CCCCN)C(=O)N[C@@H](CC(N)=O)C(=O)N[C@@H](Cc1ccccc1)C(=O)N[C@@H](Cc1ccc(F)cc1)C(=O)N[C@@H](Cc1c[nH]c2ccccc12)C(=O)N[C@@H](CCCCN)C(=O)N[C@H](C(=O)N[C@@H](Cc1ccccc1)C(=O)N[C@H](C(=O)N[C@@H](CO)C(=O)N[C@@H](CO)C(=O)O)[C@@H](C)O)[C@@H](C)O [F2 Δ-som] (H-AGSKNF[Phe(4-F)]WKTFTSS-OH) to AGSKNAFWKTATSS [Phe6,11 → Ala Δ-som], the Kd rises from 51 ± 30 µM to 587 ± 174 µM (12-fold). The first binds more tightly here.

AGSKNFFWKTFTSS [Δ-som, Δ-somatostatin] and C[C@H](N)C(=O)NCC(=O)N[C@@H](CO)C(=O)N[C@@H](CCCCN)C(=O)N[C@@H](CC(N)=O)C(=O)N[C@@H](Cc1ccc(F)cc1)C(=O)N[C@@H](Cc1ccccc1)C(=O)N[C@@H](Cc1c[nH]c2ccccc12)C(=O)N[C@@H](CCCCN)C(=O)N[C@H](C(=O)N[C@@H](Cc1ccccc1)C(=O)N[C@H](C(=O)N[C@@H](CO)C(=O)N[C@@H](CO)C(=O)O)[C@@H](C)O)[C@@H](C)O [F1 Δ-som] (H-AGSKN[Phe(4-F)]FWKTFTSS-OH) are within error of each other in Kd: 103 ± 47 µM for the first, 61 ± 47 µM for the second.

AGSKNFAWKTFTSS [Phe7 → Ala Δ-som] and AGSKNAAWKTFTSS [Phe6,7 → Ala Δ-som] are within error of each other in Kd: 123 ± 96 µM for the first, 242 ± 177 µM for the second.

In the case of AGSKNFFWKTATSS [Phe11 → Ala Δ-som], the Kd is reported as 261 ± 101 µM.

From article PMC4726260, “Combined ligand-observe ^19F and protein-observe ^15N,^1H-HSQC NMR suggests phenylalanine as the key Δ-somatostatin residue recognized by human protein disulfide isomerase” (Scientific Reports, 2016)
